The source of these data is US20090264310A1, “SCREENING METHOD FOR THE ISOLATION OF CENTROSOMAL CLUSTER-INHIBITORS AS ANTI-CANCER AGENTS” (priority 2006, published 2009).

Structures are written as SMILES.

The subject of data set [1] is SCC114 cells. Kind of data set: Induction of multipolar mitotic spindles (immunofluorescence). It is filed as cell-based, human. Particulars: SCC114, 20 μM griseofulvin, 24 hours. Here is the method: (§1) All cell lines (BJ fibroblasts (available from ATCC), SCC114 (18), HeLa (ATCC), MCF7 (ATCC), N115 and U2OS (ATCC) were cultured in Dulbecco's modified Eagle's Medium (DMEM, PAA Laboratories, Pasching, Germany) supplemented with 10% FCS (PAA), 20 U/ml penicillin and 20 μg/ml streptomycin (Biochrom, Berlin, Germany) at 37° C., 5% CO2. SCC114-D1 cells stably expressing GFP-α-tubulin were generated by transfection (Fugene 6, Roche Diagnostics, Mannheim, Germany) of the transgene in pEGFP-C1 (Clontech, Heidelberg, Germany) and maintained under selective pressure by addition of geniticin (Gibco, Invitrogen, Karlsruhe, Germany) into complete medium at a concentration of […]. When indicated, griseofulvin (Sigma, Deisenhofen, Germany) was added to culture medium at several concentrations (0-100 μM), and incubation was continued for 24-72 h. Griseofulvin was dissolved in DMSO (Sigma); the final DMSO concentration in all experiments was 0.1%.
(§2) Cells grown on glass coverslips were fixed in −20° C. methanol/acetone (1:1) for 7 min. After blocking non-specific sites with 10% goat serum (Sigma)/PBS for 5 min, the cells were incubated with primary antibodies for 1 h. Unlabelled antibodies were used at following dilutions: mouse monoclonal antibody to Eg5, 1:500 (Transduction Laboratories, Lexington, Ky.); mouse monoclonal antibody to γ-tubulin (GTU-88) at 1:300, rabbit polyclonal antibody to γ-tubulin at 1:100, and mouse monoclonal antibody to α-tubulin at 1:500 (Sigma, Deisenhofen, Germany); rabbit anti-phospho-histone H3, 1:500 (Upstate Biotechnology, Lake Placid, N.Y.); mouse monoclonal antibody to dynein, 1:50 (Chemicon International, Hampshire, UK); mouse monoclonal antibody to NuMA, 1:50 (Calbiochem, Darmstadt, Germany). Coverslips were then washed three times with PBS and incubated with secondary antibodies for 25 min before adding DAPI to a final concentration of 0.1 μg/ml (Sigma) to the antibody dilution for additional 5 min. The following fluorchrome-conjugated secondary antibodies were used: rabbit Alexa 488, 1:1000 (Molecular Probes, Invitrogen, Karlsruhe, Germany) and mouse Cy3, 1:400 (Jackson ImmunoResearch Laboratories, West Grove, PN). Coverslips were washed three times with PBS, rinsed shortly with water and post-fixed in absolute ethanol for 1 min. Airdryed Coverslips were embedded in Vectashield (Vector Laboratories, Burlingame, Calif.) or Fluoromount G (Southern Biotech, Birmingham, Ala.). Immunostained cells were examined using a Zeiss Axiovert 200 M fluorescence microscope (Göttingen, Germany) and images were processed with Photoshop (Adobe, München, Germany) software.

For data set [2], the system named is BJ fibroblasts. The data set is described as above. It is filed as cell-based, human. Particulars: 24 hours. The method, then:
as §1, §2

The subject of data set [3] is HeLa cells. Described as above. It is filed as cell-based, human. Particulars: 100 μM griseofulvin, 24 hours. The method, then:
as §1, §2

For another data set, the system named is MCF7 cells. The description is as above. As to conditions: 24 hours. It counts as cell-based, human. Here is the method:
as §1, §2

The test system of the next data set is U2OS cells. The description is as above. It is filed as cell-based, human. As to conditions: 100 μM griseofulvin, 24 hours. Here is the method: as §1, §2
Data set [4] relates to SCC114 cells. Kind of data set: Dynein and NuMA localization on mitotic spindles (immunofluorescence). It counts as cell-based, human. Particulars: SCC114, 100 μM griseofulvin, 24 hours. The method, then: as §2, with “The following fluorchrome-conjugated secondary antibodies were used: rabbit Alexa 488, 1:1000 (Molecular Probes, Invitrogen, Karlsruhe, Germany) and mouse Cy3, 1:400 (Jackson ImmunoResearch Laboratories, West Grove, PN). Coverslips were washed three times with PBS, rinsed shortly with water and post-fixed in absolute ethanol for 1 min. Airdryed Coverslips were embedded in Vectashield (Vector Laboratories, Burlingame, Calif.) or Fluoromount G (Southern Biotech, Birmingham, Ala.).” left out, “software. […]” for “software.”

The test system of data set [5] is SCC114 cells. Kind of data set: G2/M cell cycle arrest, propidium iodide flow cytometry. It is filed as cell-based, human. Particulars: SCC114, 20 μM griseofulvin, 24 hours. Here is the method:
(§3) Cells were plated in 6-well plates (Greiner Bio-One, Kremsmuenster; Austria), treated 24 h later with different concentrations of griseofulvin and incubated for 24 h. Both attached and unattached cells were harvested and washed with PBS. For cell cycle, analysis cells were fixed in −20° C. methanol (70%) for at least 45 min. Cells were then washed with PBS and incubated in propidiumodide buffer containing 0.01 mg/ml propidiumiodide (Molecular Probes) and 0.25 mg/ml RNase A (Roth, Karlsruhe, Germany) for 30 min. For the histone H3-assay, cells were fixed in 70% ethanol, incubated with 0.25% Triton X-100/PBS for 15 min on ice, and stained with rabbit antibody to phospho-histone H3 (1:500; Upstate Biotechnology) for 2 h at room temperature, followed by 1 h of incubation with Alexa 488 conjugated anti-rabbit IgG (1:1000; Molecular Probes). DNA was counterstained with propidiumiodide buffer (see above) for 30 minutes at 37° C. Cells were analyzed with a FACScan flow cytometer (Becton Dickinson, Heidelberg, Germany) using CellQuest Software.
Background: In flow cytometry, cells or beads pass a laser one at a time.

For data set [6], the system named is BJ fibroblasts. The description is as above. It is filed as cell-based, human. Particulars: 20 μM griseofulvin, 24 hours. The method, then: as §3
The subject of data set [7] is HeLa cells. The data set is described as above. It is filed as cell-based, human. As to conditions: 20 μM griseofulvin, 24 hours. The method, then:
as §3

Data set [8] relates to N115 mouse neuroblastoma cells. In words: Inhibition of centrosome coalescence and microtubule network in interphase cells (immunofluorescence). Particulars: N115, 50 μM griseofulvin, 24 hours. It counts as cell-based. Here is the method: as §1
Cells grown on glass coverslips were fixed in −20° C. methanol/acetone (1:1) for 7 min. After blocking non-specific sites with 10% goat serum (Sigma)/PBS for 5 min, the cells were incubated with primary antibodies for 1 h. […] Immunostained cells were examined using a Zeiss Axiovert 200 M fluorescence microscope (Göttingen, Germany) and images were processed with Photoshop (Adobe, München, Germany) software. […]

Data set [9] relates to BJ fibroblasts. Kind of data set: Colorimetric MTT cytotoxicity assay. It is filed as cell-based. As to conditions: Homo sapiens, Fibroblast, highest concentration 100 μM, read-out: growth inhibition. The method, then: (§4) The cytotoxicity assay was performed as previously described (53). Briefly, MTT (Thiazolyl Blue Tetrazolium Blue; Sigma) was dissolved in PBS at 5 mg/ml and filtered. 0.3×10^5 cells were plated in 96 well plates (Nunc) 24 h before addition of griseofulvin. Cells were then treated with different concentrations of griseofulvin for 22 h. Stock MTT solution (10 μl per 100 μl medium) was added to all wells, and plates were incubated additional 2 h at 37° C. Medium was discarded, 200 μl DMSO was added to each well and incubated for 20 minutes at 37° C. When all crystals were dissolved, the plates were read on a microtiterplate […] reader (Tecan, Crailsheim, Germany), using a test wavelength of 650 nm and a reference wavelength of 750 nm.
Background: Tetrazolium assays rely on reduction of a dye to a coloured formazan, in cell work by metabolically active cells.

Data set [10] is described as follows: Colorimetric MTT cytotoxicity assay. As to conditions: human, SCC114 cells, SCC114, 0-100 μM, read-out: IC50 cytotoxicity / half-maximal inhibition of cell growth. It counts as cell-based. The method, then:
as §4

The subject of data set [11] is SCC114 cells. Kind of data set: Mitotic cells by phospho-histone H3 two-parameter flow cytometry. Particulars: SCC114, 35 μM griseofulvin, 24 hours (29.1% prior to treatment). It counts as cell-based, human. The method, then:
as §3

The test system of data set [12] is BJ fibroblasts. The data set is described as above. It is filed as cell-based, human. As to conditions: 35 μM griseofulvin, 24 hours (4.1% prior to treatment). Here is the method: as §3

As for `COC1=CC(=O)C[C@@H](C)[C@]12Oc1c(Cl)c(OC)cc(OC)c1C2=O` [griseofulvin], the “percentage of multipolar spindles” value was 53% in the data set with SCC114 cells [1] and 20% in the data set with MCF7 cells (MCF7, 20 μM griseofulvin). For the same molecule, the “percentage of metaphases multipolar” value with BJ fibroblasts [2] (BJ fibroblasts, 20 μM griseofulvin) came to 3%. The “percentage of mitotic cells harbouring bipolar spindles” value in the data set with BJ fibroblasts [2] (normal diploid fibroblasts, 100 μM griseofulvin) worked out at 87%. Also, the “percentage of mitoses multipolar” value is given as “more than 85%” with HeLa cells [3]; “more than 85%” with MCF7 cells (MCF7, 100 μM griseofulvin); “more than 85%” in the data set on U2OS cells. The “percentage of multipolar spindles labelled with antibody to NuMA” value in the data set on SCC114 cells [4] came out at 99.5±0.5%. Besides, the “percentage of multipolar spindles labelled with antibody to dynein” value in the data set on SCC114 cells [4] came to 99±1%. Besides, the “percentage of cells arrested in G2/M phase” value in the data set with SCC114 cells [5] came out at 91.2±3.9%; in the data set on HeLa cells [7], 65.6±7.6%. For the same molecule, the “percentage of cells in G2/M” value in the data set with BJ fibroblasts [6] was found to be 19.1±1.4%. Also, the “percentage of interphase cells harbouring only short and convoluted microtubules” value in data set [8] was 98%. For the same molecule, in data set [8], the “percentage of interphase cells lacking clustering of centrioles into a single aggregate” value is reported as 68%. In the data set with BJ fibroblasts [9], the inhibition (usually how much of the control response was suppressed) at 100 µM amounted to 25 ± 1%. Also, the IC50 at 22 h in data set [10] was 35 µM. Moreover, the entries for the “percentage of cells in mitosis” value with SCC114 cells [11] and in the data set with BJ fibroblasts [12] were 56.4% and 5.5%, respectively.
